According to patent EP0103895A2, “Novel hydroxylamine derivatives, production and use thereof” (MEIJI SEIKA KABUSHIKI KAISHA, priority 1982, dated 1984):
Where “and” joins values, the source holds several entries; their conditions need not be identical. Identical values can stand only once. Like-named read-outs stand apart in the source and are kept apart here.

How the values were obtained:
[1] = tested on: fowl roundworm (As. galli); experiment: Anthelmintic test in chickens infected with fowl roundworm, compound added to feed at 250 ppm and 1,000 ppm, E.P.G. and worm count on 5th day (Test Example E2); format: in vivo, Ascaridia galli; conditions: for E.P.G. after 5 days: worm egg number in 1 g of fecal matter; for anthelmintic effect / inhibition in vivo at 250 ppm / inhibition in vivo at 1000 ppm: 5th day; for inhibition in vivo at 250 ppm / inhibition in vivo at 1000 ppm: Ascaridia galli, feed or water, 120 h, read-out: Anthelmintic effect
Description: Chickens infected with fowl roundworm (As. galli) were employed in groups each of two chickens.
The compound provided for the test was dissolved in a small amount of ethyl alcohol and adsorbed on defatted rice bran and added to chicken feed at levels of 250 ppm and 1,000 ppm. As control, a feed containing no such compound was employed.
Fecal matter testing was conducted before initiation of the test and on the 5th day after initiation of the test. The reduction in worm egg count was examined by calculating the E.P.G. (worm egg number in 1 g of fecal matter). The number of discharged worm bodies and the number of worm bodies remaining in the enteron when the chicken was killed on 5th day were counted to determined the anthelmintic percentage, from which the anthelmintic effect was judged.

[2] = tested on: fowl roundworm (As. galli); experiment: Anthelmintic test in chickens infected with fowl roundworm, single oral dose of 40 mg per Kg, worm bodies counted within 24 hours (Test Example E1); format: in vivo, Ascaridia galli; conditions: 40 mg per Kg oral in gelatin capsule; for inhibition in vivo at 40 mg/kg: Ascaridia galli, 24 h, chicken No.1, read-out: Anthelmintic effect after one day
Description: Chickens infected with fowl roundworm (As. galli) were employed in groups each consisting of five chickens. The compound provided for testing was orally administered in a quantity of 40 mg per Kg of body weight to each chicken in a gelatin capsule. The number of worm bodies discharged within 24 hours after administration of the medicine was counted. Then the chicken was killed, and the number of worm bodies remaining in the enteron was counted to determine the anthelmintic percentage, wherefrom the anthelmintic effect was judged.

[3] = tested on: canine filaria; Dirofilaria immitis; experiment: Test of anthelmintic effect against canine filaria in naturally infected dogs, subcutaneous injection, microfilaria in blood and adult filaria at autopsy (Test Examples A10, B10, C10, D10); format: in vivo; conditions: for inhibition in vivo at 30 mg/kg: Dirofilaria immitis, sc, 240 h
Description: Eight dogs infected with canine filaria; Diro- filaria immitis (naturally infected dogs) were employed in groups each of two dogs.
The compounds provided for tests were Compound Nos. Al, A3 and A12. 20 mg of each was administered by subcutaneous injection per Kg of body weight to each of the two dogs as a suspension in 1% "Tween 80" solution once per day for three days. As control, 3 ml of the 1% "Tween 80" solution was subcutaneously injected into two dogs once per day for three days.
Before administration and on the 10th day after administration, 20 µl of earlobe blood of each dog was sampled and examined to determine the change in microfilaria (mf) according to the concentrated smear color method, and judgement on the effect on microfilaria (mf) was made. Judgement relating to adult filaria was made on the 10th day after the last administration by killing the dogs and carrying out autopsis.
30 mg of each compound was administered by subcutaneous injection per Kg of body weight to each of the two dogs as a suspension in 1% "Tween 80" solution once per day for three days. As control, 3 ml of the 1% "Tween 80" solution was subcutaneously injected into two dogs once per day for three days.
30 mg of each compound was administered by subcutaneous injection per Kg of body weight to each of two dogs as a suspension in 1% "Tween 80" solution once per day for three days. As control, 3 ml of the 1% "Tween 80" solution was subcutaneously injected to two dogs once per day for three days.
20 mg of each compound was administered by subcutaneous injection per kg of body weight once per day for three days to each of two dogs. These compounds were administered as a suspension in 1% "Tween 80" in the case of Compound No.Dl3 and as solutions dissolved in distilled water for injection in the case of Compounds Nos. D10 and D16, respectively. As control, 3 ml of the 1% "Tween 80" solution was subcutaneously injected into two dogs once per day for three days.

[4] = tested on: fowl roundworm (Ascaridia galli); experiment: Anthelmintic test in chickens artificially infected with fowl roundworm, single oral dose in gelatin capsule, worm bodies counted within 48 hours (Test Examples A1, B1, C1, D1); format: in vivo; conditions: Ascaridia galli, po, 48 h, chicken, chickens No.1-3, read-out: Anthelmintic effect after 48 hours
Description: Chickens infected artificially with fowl roundworm (Ascaridia galli) were employed in groups each consisting of three chickens. Fecal matter testing was conducted before administration of medicine to confirm infection with the worm. The quantity of the compound provided for testing was 10 mg and 20 mg per Kg of body weight, which was orally administered each in a gelatin capsule to the chicken. The number of worm bodies discharged within 48 hours after administration of medicine was counted, the chicken was killed after 48 hours and the number of worm bodies remaining in the enteron was counted to determine the anthelmintic percentage, wherefrom the antihelmintic effect was judged.
The same as that in Test Example Al.
The same as that in Test Example Al except that the compound provided for testing was in quantities of 30 mg and 50 mg per Kg of body weight, which were orally administered to the chickens in gelatin capsules.
The same as that in Test Example Al, except that the compounds provided for testing were used in quantities of 15 mg and 30 mg per Kg of body weight, which were orally administered each in a gelatin capsule to the chicken.

[5] = tested on: fowl roundworm (As. galli); experiment: Anthelmintic test in chickens artificially infected with fowl roundworm, compound added to feed, E.P.G. and worm count up to 21st day (Test Examples A2, B2, C2, D2); format: in vivo, Ascaridia galli; conditions: chicken
Description: Chickens artificially infected with fowl roundworm (As. galli) were employed in groups each of two chickens.
Fecal matter testing was conducted before initiation of the test and on the 7th, 14th and 21st day after initiation of the test. Reduction in worm egg number was examined by calculating E.P.G. (worm eggs per 1 g of fecal matter), and the number of discharged worm bodies and the number of worm bodies remaining in the enteron when the chicken was killed on 21st day were counted to determine the anthelmintic percentage, from which the anthelmintic effect was judged.

[6] = 1000 ppm in feed, chicken No. 1
[7] = 1000 ppm in feed, chicken No. 2

| Compound | E.P.G. after 5 days ([1]; 250 ppm in feed, chicken No. 1) | anthelmintic effect ([1]; 250 ppm in feed, chicken No. 2) | E.P.G. after 5 days ([1]; 250 ppm in feed, chicken No. 2) | E.P.G. after 5 days [1, 6] | anthelmintic effect [1, 7] | E.P.G. after 5 days [1, 7] | inhibition in vivo at 250 ppm ([1]; 250 ppm in feed, chicken No. 1) [%] | inhibition in vivo at 1000 ppm [1, 6] [%] | inhibition in vivo at 40 mg/kg [2] [%] | Anthelmintic effect after one day ([2]; chicken No.2) | Anthelmintic effect after one day ([2]; chicken No.3) | Anthelmintic effect after one day ([2]; chicken No.4) | Anthelmintic effect after one day ([2]; chicken No.5) | further results |
| --- | --- | --- | --- | --- | --- | --- | --- | --- | --- | --- | --- | --- | --- | --- |
| C#CCON(CC#C)C(=O)CCCCCCCCCCC [Compound E10, N,O-dipropargyl-N-lauroylhydroxylamine] | 0 | +++ (100%) | 0 | 0 | +++ (100%) | 0 | 100 | 100 | 100 | +++ (100%) | +++ (100%) | +++ (100%) | +++ (100%) | – |
| C#CCON(CC#C)C(=O)c1ccccc1Cl [Compound E8, N,O-dipropargyl-N-O-chlorobenzoylhydroxylamine] | 0 | +++ (100%) | 0 | 0 | +++ (100%) | 0 | 100 | 100 | 100 | +++ (100%) | +++ (100%) | +++ (100%) | +++ (100%) | – |
| C#CCON(C=O)CC#C [Compound E9, N,O-dipro- pargyl-N-formylhydroxylamine] | 0 | +++ (100%) | 0 | 0 | +++ (100%) | 0 | 100 | 100 | 100 | +++ (100%) | +++ (100%) | +++ (100%) | +++ (100%) | – |
| C#CCON(CC#C)C(C)=O [Compound E1, N,O-dipropargyl-N-acetylhydroxylamine] | 0 | +++ (100%) | 0 | 0 | +++ (100%) | 0 | 100 | 100 | 100 | +++ (100%) | +++ (100%) | +++ (100%) | +++ (100%) | – |
| C#CCON(CC#C)C(=O)CCCCCCCCCCCCCCCCC [Compound E11, N,O-dipropargyl-N-stearoyl- hydroxylamine] | 0 | +++ (100%) | 0 | 0 | +++ (100%) | 0 | 100 | 100 | 100 | +++ (100%) | +++ (100%) | +++ (100%) | +++ (100%) | – |
| C#CCON(CC#C)C(=O)CC [Compound E2, N,O-dipropargyl-N-propionylhydroxylamine] | 0 | +++ (100%) | 0 | 0 | +++ (100%) | 0 | 100 | 100 | 100 | +++ (100%) | +++ (100%) | +++ (100%) | +++ (100%) | – |
| C=CCON(CC=CC)C(C)=O [Compound C9] | – | – | – | – | – | – | – | – | – | – | – | – | – | inhibition in vivo at 30 mg/kg ([3]; dog, 30 mg/Kg x 3, subcutaneous injection, read-out: Effect on adult filaria: Percent of worms killed): 70%; inhibition in vivo at 30 mg/kg ([3]; dogs, administration of 30 mg/Kg repeated three times, given as about 50% or more, read-out: anthelmintic effect against adult filaria): ≥ 50%; Number of microfilaria/20 µl On 10th day after the last administration ([3]; dog, 30 mg/Kg x 3, subcutaneous injection, suspension in 1% Tween 80): 0 /20 µl; Effect on adult filaria: Number of worms killed/ Total parasite ([3]; dog, 30 mg/Kg x 3, subcutaneous injection, 30 mg/kg): 14/20 and 19/27; anthelmintic effect against microfilaria (mf) ([3]; dogs, administration of 30 mg/Kg repeated three times): marked anthelmintic effect; inhibition in vivo at 30 mg/kg ([4]; 30 mg/Kg oral in gelatin capsule): 100%; inhibition in vivo at 50 mg/kg ([4]; 50 mg/Kg oral in gelatin capsule): 100%; inhibition in vivo at 25 ppm ([5]; Ascaridia galli, feed or water, 504 h, 25 ppm in feed, read-out: Anthelmintic effect): 100%; inhibition in vivo at 50 ppm ([5]; Ascaridia galli, feed or water, 504 h, 50 ppm in feed, read-out: Anthelmintic effect): 100%; Change of E.P.G. 21st day ([5]; 25 ppm in feed): 0; Change of E.P.G. 21st day ([5]; 50 ppm in feed): 0 |
| C#CCON(CC#C)C(=O)CCCCC [Compound E5, N,O-dipropargyl-N-caproylhydroxylamine] | 0 | +++ (100%) | 0 | 0 | +++ (100%) | 0 | 100 | 100 | 100 | +++ (100%) | +++ (100%) | +++ (100%) | +++ (100%) | – |
| C#CCON(CC#C)C(=O)CCC [Compound E3, N,O-dipropargyl-N-butylylhydroxylamine] | 0 | +++ (100%) | 0 | 0 | +++ (100%) | 0 | 100 | 100 | 100 | +++ (100%) | +++ (100%) | +++ (100%) | +++ (100%) | – |
